The record followed here is patent US20090023696A1, “USE OF C3-C10 17ALFA-ESTERS OF 9,11-DEHYDROCORTEXOLONE AS ANTI-GONADOTROPHIC AGENTS” (COSMO BIO-TECHNOLOGIES SRL, priority 2005, published 2009).

The test system of the assay is hypersecretion of gonadotrophin in the parabiotic rat. The experiment in a line: Hypersecretion of gonadotrophin induced by castration in parabiotic rats (ovarian weight). The note with it: for Inhibition of ovarian weight (%): subcutaneously into castrated males; for anti-gonadotrophic effect (inhibitory effect on gonadotrophin secretion), in words: overall conclusion from Table 1. Type of assay: in vivo, Wistar rats. As for the experimental part:
The anti-gonadotrophic action was evaluated in an animal model by evaluation of the hypersecretion of the gonads induced by castration in parabiotic rats (Shipley E. G., in: Methods in Hormone Research, R. L Dorfman (ed.), vol. 2, pp 179-274. Academic Press, New York and London, 1962). The results of the inhibitory action of […] 17α-butyrate on the gonads are shown below in Table 1. Wistar rats of both sexes with body weights of 50-60 g were used. The males were castrated and, on the next day, were surgically united along the lateral body wall with intact females (parabiosis). In this experimental procedure, the castration of the males induces in them an immediate hypersecretion of gonadotrophin, which, on reaching the female via the parabiotic union, stimulates ovarian growth. […] Progesterone was used as a positive control and was administered by the same procedure, in doses of 0.5 and 2 mg. Additional groups of pairs including intact males/intact females and castrated males/intact females were treated with the vehicle only and used as a control. At the end of the treatment period, the pairs were killed and autopsies performed. The ovaries and uteruses of each female rate were isolated and weighed. The inhibitory action causing hypersecretion of gonadotrophin due to castration was evaluated via the capacity of the tested compound to oppose the increase of weight of the ovaries.

Values joined by “and” are separate entries in the source; they are usually repeats but may differ in a detail not shown here. Identical values can stand only once. “Also recorded” adds a separate entry of the source. Marks after values point to notes of the source that are not given here.

In the case of `CCCC(=O)O[C@]1(C(=O)CO)CCC2C3CCC4=CC(=O)CCC4(C)C3=CCC21C` (stereo partly drawn) [9,11-dehydrocortexolone 17α-butyrate], the “anti-gonadotrophic effect (inhibitory effect on gonadotrophin secretion), in words” value is “strong and significant dose-correlated inhibitory effect on gonadotrophin secretion; also recorded: comparable to that shown by comparable doses of progesterone”. Further, where the note is “daily dose 1 mg”, the “Inhibition of ovarian weight (%)” value was 59% and 59^a %. For the setting “daily dose 5 mg”, the “Inhibition of ovarian weight (%)” value is 96% and 96^a %.

Consider `CCC(=O)O[C@]1(C(=O)CO)CC[C@H]2[C@@H]3CCC4=CC(=O)CC[C@]4(C)[C@H]3CC[C@@]21C` [cortexolone 17α-propionate, reference compound], for which the “anti-gonadotrophic effect (inhibitory effect on gonadotrophin secretion), in words” value is “no anti-gonadotrophic action at all”. Further, the “Inhibition of ovarian weight (%)” value (daily dose 1 mg) stood at 5%. Moreover, for the setting “daily dose 5 mg”, the “Inhibition of ovarian weight (%)” value amounted to 5%.

As for `CC(=O)[C@H]1CC[C@H]2[C@@H]3CCC4=CC(=O)CC[C@]4(C)[C@H]3CC[C@]12C` [progesterone, reference compound], the “Inhibition of ovarian weight (%)” value reads like this: (daily dose 0.5 mg) 38^b %; (daily dose 2 mg) 66^a %.
